In PubChem BioAssay AID743016 (Vanderbilt Specialized Chemistry Center, 2013):

Molecular target: Mas-related G-protein coupled receptor member X1 (Homo sapiens) (UniProt Q96LB2)
Assay: enhancers of MrgX1 receptor signaling – cell-based, HEK293, calcium flux, BAM8-22, dose response (AID 743016)
Settings: HEK293-MrgX1, Fluo4 calcium flux, BAM8-22 potentiation; with BAM 0.1 µM;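 active means compounds raising MrgX1 calcium signal by over 3 SD of library plate-corrected scores; inactive means the rest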

Sequence of Mas-related G-protein coupled receptor member X1 (Homo sapiens) (Q96LB2 whole entry, looked up): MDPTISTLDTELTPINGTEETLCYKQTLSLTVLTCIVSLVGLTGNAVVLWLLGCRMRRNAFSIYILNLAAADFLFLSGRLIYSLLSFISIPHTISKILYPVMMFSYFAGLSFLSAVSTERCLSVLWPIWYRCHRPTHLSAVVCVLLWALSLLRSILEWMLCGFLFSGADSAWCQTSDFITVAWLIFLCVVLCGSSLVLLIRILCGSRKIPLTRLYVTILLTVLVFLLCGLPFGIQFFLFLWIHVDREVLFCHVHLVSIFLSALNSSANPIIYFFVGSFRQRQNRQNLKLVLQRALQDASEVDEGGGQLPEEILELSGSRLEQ

EC50, active:
CCOc1ccccc1NC(=O)c1ccccc1NS(=O)(=O)CC1CC1 4470 nM
COc1ccccc1NC(=O)c1ccccc1NS(C)(=O)=O 3060 nM
COC(=O)c1ccccc1NC(=O)c1ccccc1N(C)S(C)(=O)=O 1570 nM
CCOc1ccccc1NC(=O)c1ccccc1NS(=O)(=O)CC 910 nM
COc1ccc(NC(=O)c2ccccc2NS(=O)(=O)c2cccnc2Cl)c(OC)c1 2910 nM
CCOc1ccccc1NC(=O)c1ccccc1NS(C)(=O)=O 1910 nM
COc1ccc(C)cc1NC(=O)c1ccccc1NS(C)(=O)=O 2340 nM
COc1ccc(Cl)cc1NC(=O)c1ccccc1NS(C)(=O)=O 1010 nM
CCOc1ccccc1NC(=O)c1ccccc1NS(=O)(=O)CCCl 380 nM
CCOc1ccccc1NC(=O)c1ccccc1N(C)S(C)(=O)=O 1390 nM
CCOc1ccccc1NC(=O)c1ccccc1NS(=O)(=O)C(C)C 1820 nM
CSc1ccccc1NC(=O)c1ccccc1NS(C)(=O)=O 420 nM
CSc1ccccc1NC(=O)c1ccccc1N(C)S(C)(=O)=O 500 nM
COc1ccc(NC(=O)c2ccccc2NS(C)(=O)=O)c(OC)c1 150 nM
CCOc1ccccc1NC(=O)c1ccccc1NS(=O)(=O)C1CC1 190 nM
